Assay results: patent publication US20230293535A1, “ERBB/BTK INHIBITORS” (Dizal (Jiangsu) Pharmaceutical Co., Ltd., priority 2018, published 2023)
Where two headings read alike, the source gives them in different places.

Key:
[1] = tested on: NCI-H1975 EGFR L858R/T790M cells; test: Cell proliferation, NCI-H1975 EGFR L858R/T790M (CellTiter-Glo, 72 h); type: cell-based;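 further: viable cells quantified by luciferase-based ATP luminescence, proliferation expressed relative to DMSO-treated wells (100%) after subtracting a parallel plate read at the time of dosing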
Description: (§1) WT or mutant cells were seeded in 384 well plates at appropriate concentrations with corresponding growth media supplemented with 10% FBS, for each experiment, identical plates were prepared in duplicates, and the plates were incubated overnight. On the next day, one of each duplicated plates was dosed with tested compounds at a series of concentrations, and another one of the duplicated plate was analysied for G0 value. The dosed plates were incubate for another 72 h at 37° C. with 5% CO2 and the number of viable cells in each well of the G0 plates or the dosed plates were measured by CellTiter-Glo® Luminescent Cell Viability Assay (Promega). This assay is a luminescent method for determining the number viable cells through measurement of cellular ATP concentration by detection of luciferase activity. Detection reagents (15 µl) was dispensed into per well, and the plates were incubate for 30 min at room temperature. Then, the luminescence in each well was measured using the Envision plate reader (PerkinElmer). The percentage of proliferation was calculated based on the formula: %Proliferation= 100 × (G3 value of sample well-Go value)/(G3 value of DMSO control-Go value).

OCI-LY-10 cells = test: BTK (wt) cell proliferation, OCI-LY-10 (CellTiter-Glo, 72 h); type: cell-based; details: read-out: BTK WT OCI-LY-10 GI50;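 further: viable cells quantified via cellular ATP luminescence, proliferation given as percent of DMSO control after subtracting a duplicate plate read at time of dosing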
TMD-8 cells = test: BTK (wt) cell proliferation, TMD-8 (CellTiter-Glo, 72 h); type: cell-based; details: read-out: BTK WT TMD-8 GI50;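 further: viable cells quantified by ATP-based luminescence, proliferation expressed as percent of DMSO control after subtracting a time-zero baseline plate read at dosing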
[2] = target: T1, human EGFR exon 20 V769_D770insASV (Homo sapiens, UniProt P00533, INS769ASV); test: EGFR Exon20 ASV insertion cellular phosphorylation inhibition (MSD pEGFR Y1068/total EGFR); type: cell-based; details: Ba/F3 EGFR ASV ins cells, 4 h compound, p-EGFR(Y1068)/total EGFR;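 further: electrochemiluminescent readout on an MSD SECTOR Imager, IL3-independent transduced cells in medium with 1% FBS, compound concentration series at 37 °C and 5% CO2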
T1 construct: expressed in transfected cells; host or cells: Ba/F3 (DSMZ ACC-300), lentiviral transduction, puromycin selection, IL3 depletion
T1 sequence (P00533 with tags, fused parts or gaps INS769ASV): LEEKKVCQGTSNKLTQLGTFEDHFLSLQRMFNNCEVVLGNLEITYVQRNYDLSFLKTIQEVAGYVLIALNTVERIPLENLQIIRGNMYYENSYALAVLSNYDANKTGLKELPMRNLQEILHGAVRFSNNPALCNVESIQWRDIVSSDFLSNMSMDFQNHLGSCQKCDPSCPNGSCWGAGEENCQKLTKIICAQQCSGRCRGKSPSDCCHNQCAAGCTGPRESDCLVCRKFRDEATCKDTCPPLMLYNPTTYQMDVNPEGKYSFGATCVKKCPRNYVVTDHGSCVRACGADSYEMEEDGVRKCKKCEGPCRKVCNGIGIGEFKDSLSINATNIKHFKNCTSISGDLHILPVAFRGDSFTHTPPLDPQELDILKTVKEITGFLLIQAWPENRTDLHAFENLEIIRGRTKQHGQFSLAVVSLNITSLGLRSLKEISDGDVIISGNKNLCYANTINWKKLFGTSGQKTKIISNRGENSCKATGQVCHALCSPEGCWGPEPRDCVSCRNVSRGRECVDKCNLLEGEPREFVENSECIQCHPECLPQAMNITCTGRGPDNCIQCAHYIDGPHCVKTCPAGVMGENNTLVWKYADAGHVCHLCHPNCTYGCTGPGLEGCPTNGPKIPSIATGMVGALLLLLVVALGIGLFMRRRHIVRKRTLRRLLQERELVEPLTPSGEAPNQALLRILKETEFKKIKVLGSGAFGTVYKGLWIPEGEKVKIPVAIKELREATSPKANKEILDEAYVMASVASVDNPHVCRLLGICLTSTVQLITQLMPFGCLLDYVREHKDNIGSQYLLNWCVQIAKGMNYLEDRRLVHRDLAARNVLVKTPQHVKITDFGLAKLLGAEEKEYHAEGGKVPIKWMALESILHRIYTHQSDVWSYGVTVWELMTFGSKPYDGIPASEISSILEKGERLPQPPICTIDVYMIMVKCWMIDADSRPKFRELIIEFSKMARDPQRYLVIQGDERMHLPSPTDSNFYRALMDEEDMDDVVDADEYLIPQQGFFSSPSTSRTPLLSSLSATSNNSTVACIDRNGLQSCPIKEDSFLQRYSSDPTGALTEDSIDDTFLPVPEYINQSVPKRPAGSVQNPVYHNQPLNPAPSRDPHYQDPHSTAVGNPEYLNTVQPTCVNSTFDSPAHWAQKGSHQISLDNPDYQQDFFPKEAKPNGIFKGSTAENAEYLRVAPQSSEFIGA
Description: To generate the EGFR exon 20 V769_D770insASV transduced Ba/F3 cell line, the parental Ba/F3 cells were infected with the recombinant EGFR V769_D770insASV lentivirus and then followed by 1 µg/ml of puromycin selection and IL3 depletion. The resulting cell line expresses constitutively phosphorylated EGFR protein and proliferates in the absence of IL3, which could be used for in vitro PD and anti-proliferation assays.
One day before the test, WT or mutant cells were seeded in 96 well plates at appropriate concentrations with corresponding growth media supplemented with 1% FBS, and incubated overnight. The next day, tested compounds at a series of concentrations were added into each individual well of the plates, and the plates were incubated for 4 h at 37° C. with 5% CO2.
The EGFR (Y1068) phosphorylation level (activity) of cells in each well were then measured with MSD kit named “MULTI-SPOT®96 4-Spot HB Prototype EGFR Triplex [sequence]: pEGFR(Tyr1068),pEGFR(Tyr1173), Total EGFR” according to the manufacturer’s instruction (MESO SCALE DISCOVERY, Cat# N45ZB-1). The assay is an electrochemiluminescent method for determining both phosphorylated and total EGFR of cells with an MSD SECTOR® Imager and the ratio of p-EGFR/total EGFR can be generated by the machine. The Her2 (Y1248) phosphorylation level (activity) of cells in each well were measured with MSD Kit named “Phospho-ErbB2 (Tyr1248) Assay Whole Cell Lysate Kit” according to the manufacturer’s instruction (MESO SCALE DISCOVERY, Cat# K151CLD-3). The assay is an electrochemiluminescent method (MESO SCALE DISCOVERY) for determining both phosphorylated and total Her2 of cells with an MSD SECTOR® Imager and then the ratio of p-Her2/total Her2 can be generated by the machine.

human hepatocytes = test: In vitro human hepatocytes clearance assay; details: mixed gender human hepatocytes, incubation up to 100 min
Description: (§2) The protocol for rat/human hepatocytes metabolic stability assay is employed to determine the clearance of the compounds of the present disclosure in vitro.
(§3) Rat hepatocytes in male gender and human hepatocytes in mixed gender were obtained from commercial vendors (e.g., BioreclamationIVT) and stored at -150° C. prior to use. 10 mM stock solutions of tested compounds were prepared in DMSO. Thawing medium and supplement incubation medium (serum-free) were placed in a 37° C. water bath for at least 15 minutes prior to use. Stock solutions were diluted to 100 µM by combining 198 µL acetonitrile and 2 µL of 10 mM stock solution.
(§4) Vials of cryopreserved hepatocytes were removed from storage, ensured that vials remain at cryogenic temperatures. The vials were thawed in a 37° C. water bath with gently shaking. Vials were kept in water bath until all ice crystals had dissolved and were no longer visible. Vials were sprayed with 70% ethanol before being transferred to a biosafety cabinet. And then the contents were poured into the 50 mL thawing medium conical tube. Vials were centrifuged at 100 g for 10 minutes at room temperature.
(§5) Cell viability and density were counted using a Trypan Blue exclusion, and then cells were diluted with serum-free incubation medium to a working cell density of 1 × 10^6 viable cells/ml. […] The inactivated hepatocytes were used to prepare negative samples, which were used to exclude the misleading factor that resulted from instability of chemical itself.
(§6) Aliquots of 247.5 µL hepatocytes were dispensed into each well of a 96-well non-coated plate. The plate was placed in the incubator on an orbital shaker for approximately 10 minutes. Aliquots of 2.5 µL of the 100 µM test compounds were added into respective wells of the non-coated 96-well plate to start the reaction. This assay was performed in duplicate. The plate was incubated in the incubator on an orbital shaker for the designed time points. […] Samples were centrifuges for 20 minutes at 4000 g and aliquots of 100 µL of the supernatants were used for LC-MS/MS analysis for measurement of test compounds
(§7) In vitro hepatocyte clearance was estimated based on determination of elimination half-life (T½) of compounds disappearance from their initial concentrations. Peak area ratios of each compound (test or control) to IS was calculated. Ln (%Control) versus Incubation Time (min) curve was plotted, and the slope of a linear fitting line was calculated.

[3] = target: T2, human EGFR exon 20 H773_V774insNPH (Homo sapiens, UniProt P00533, INS773NPH); test: EGFR Exon20 NPH insertion cellular phosphorylation inhibition (MSD pEGFR Y1068/total EGFR); type: cell-based; details: Ba/F3 EGFR NPH ins cells, 4 h compound, p-EGFR(Y1068)/total EGFR;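 further: IL3-independent Ba/F3 cells with constitutively phosphorylated EGFR, compound exposure at 37 °C under 5% CO2, electrochemiluminescent MSD measurement of the p-EGFR to total EGFR ratio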
T2 construct: host or cells: Ba/F3
T2 sequence (P00533 with tags, fused parts or gaps INS773NPH): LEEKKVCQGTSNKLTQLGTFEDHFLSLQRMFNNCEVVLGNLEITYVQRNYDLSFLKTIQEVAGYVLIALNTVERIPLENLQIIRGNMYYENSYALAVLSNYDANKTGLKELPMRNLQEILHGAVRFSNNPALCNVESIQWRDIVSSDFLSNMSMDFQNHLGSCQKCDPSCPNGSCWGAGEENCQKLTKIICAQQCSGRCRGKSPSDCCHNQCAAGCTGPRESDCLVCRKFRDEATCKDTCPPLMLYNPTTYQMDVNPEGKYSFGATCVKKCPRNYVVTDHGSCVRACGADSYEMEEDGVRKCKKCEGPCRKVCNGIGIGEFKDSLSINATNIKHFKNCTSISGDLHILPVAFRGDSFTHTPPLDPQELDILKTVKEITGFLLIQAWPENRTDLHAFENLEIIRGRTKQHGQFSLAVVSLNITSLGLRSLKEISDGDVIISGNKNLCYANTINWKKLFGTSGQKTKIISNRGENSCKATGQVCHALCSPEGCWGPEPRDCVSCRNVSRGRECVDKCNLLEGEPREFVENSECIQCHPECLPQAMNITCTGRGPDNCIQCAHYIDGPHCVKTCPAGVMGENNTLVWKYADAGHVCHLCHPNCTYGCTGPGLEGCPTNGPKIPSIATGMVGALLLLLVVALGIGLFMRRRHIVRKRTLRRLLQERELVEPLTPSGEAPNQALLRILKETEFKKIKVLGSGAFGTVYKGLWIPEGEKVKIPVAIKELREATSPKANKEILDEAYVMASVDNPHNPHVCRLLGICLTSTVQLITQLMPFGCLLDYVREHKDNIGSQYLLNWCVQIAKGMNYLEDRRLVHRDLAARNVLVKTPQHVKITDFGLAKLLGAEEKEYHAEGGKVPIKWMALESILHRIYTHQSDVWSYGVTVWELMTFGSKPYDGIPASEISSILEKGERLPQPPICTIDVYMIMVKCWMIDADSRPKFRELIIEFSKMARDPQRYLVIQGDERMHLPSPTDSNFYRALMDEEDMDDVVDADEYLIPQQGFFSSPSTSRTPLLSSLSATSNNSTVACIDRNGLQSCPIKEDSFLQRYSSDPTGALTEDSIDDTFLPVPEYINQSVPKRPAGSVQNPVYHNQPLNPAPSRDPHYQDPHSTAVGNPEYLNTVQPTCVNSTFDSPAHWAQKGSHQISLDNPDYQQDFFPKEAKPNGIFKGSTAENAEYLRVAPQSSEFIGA

EGFR L858R&T790M = target: T3, EGFR L858R&T790M (Homo sapiens, UniProt P00533, L858R/T790M); test: EGFR L858R and T790M cellular phosphorylation inhibition in NCI-H1975 (MSD); type: cell-based; details: NCI-H1975 cells, 4 h compound, p-EGFR(Y1068)/total EGFR; read-out: EGFR L858R and T790M mutation IC50;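 further: phosphorylated and total EGFR detected by electrochemiluminescence, cells exposed to compound in medium containing 1% FBS at 37 °C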
T3 construct: host or cells: NCI-H1975

DB cells = test: BTK (wt) cell proliferation, DB (CellTiter-Glo, 72 h); type: cell-based; details: read-out: Non-BCR activated DB GI50;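 further: DB cells in 384-well plates given a dilution series of compound, viable cells read by ATP luminescence, growth expressed versus DMSO control after subtracting a time-zero plate reading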
[4] = target: T4, human Her2 exon 20 insertion mutation YVMA (Homo sapiens, UniProt P04626, INS775YVMA); test: Her2 Exon 20 YVMA insertion cellular phosphorylation inhibition (MSD p-Her2 Y1248/total Her2); type: cell-based; details: Her2 YVMAins cells, 4 h compound;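 further: lentivirally transduced NIH-3T3 cells in 1% FBS medium, electrochemiluminescent MSD read-out, graded compound concentrations at 37 °C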
T4 construct: expressed in transfected cells; host or cells: NIH-3T3, lentiviral transduction, puromycin selection
T4 sequence (P04626 with tags, fused parts or gaps INS775YVMA): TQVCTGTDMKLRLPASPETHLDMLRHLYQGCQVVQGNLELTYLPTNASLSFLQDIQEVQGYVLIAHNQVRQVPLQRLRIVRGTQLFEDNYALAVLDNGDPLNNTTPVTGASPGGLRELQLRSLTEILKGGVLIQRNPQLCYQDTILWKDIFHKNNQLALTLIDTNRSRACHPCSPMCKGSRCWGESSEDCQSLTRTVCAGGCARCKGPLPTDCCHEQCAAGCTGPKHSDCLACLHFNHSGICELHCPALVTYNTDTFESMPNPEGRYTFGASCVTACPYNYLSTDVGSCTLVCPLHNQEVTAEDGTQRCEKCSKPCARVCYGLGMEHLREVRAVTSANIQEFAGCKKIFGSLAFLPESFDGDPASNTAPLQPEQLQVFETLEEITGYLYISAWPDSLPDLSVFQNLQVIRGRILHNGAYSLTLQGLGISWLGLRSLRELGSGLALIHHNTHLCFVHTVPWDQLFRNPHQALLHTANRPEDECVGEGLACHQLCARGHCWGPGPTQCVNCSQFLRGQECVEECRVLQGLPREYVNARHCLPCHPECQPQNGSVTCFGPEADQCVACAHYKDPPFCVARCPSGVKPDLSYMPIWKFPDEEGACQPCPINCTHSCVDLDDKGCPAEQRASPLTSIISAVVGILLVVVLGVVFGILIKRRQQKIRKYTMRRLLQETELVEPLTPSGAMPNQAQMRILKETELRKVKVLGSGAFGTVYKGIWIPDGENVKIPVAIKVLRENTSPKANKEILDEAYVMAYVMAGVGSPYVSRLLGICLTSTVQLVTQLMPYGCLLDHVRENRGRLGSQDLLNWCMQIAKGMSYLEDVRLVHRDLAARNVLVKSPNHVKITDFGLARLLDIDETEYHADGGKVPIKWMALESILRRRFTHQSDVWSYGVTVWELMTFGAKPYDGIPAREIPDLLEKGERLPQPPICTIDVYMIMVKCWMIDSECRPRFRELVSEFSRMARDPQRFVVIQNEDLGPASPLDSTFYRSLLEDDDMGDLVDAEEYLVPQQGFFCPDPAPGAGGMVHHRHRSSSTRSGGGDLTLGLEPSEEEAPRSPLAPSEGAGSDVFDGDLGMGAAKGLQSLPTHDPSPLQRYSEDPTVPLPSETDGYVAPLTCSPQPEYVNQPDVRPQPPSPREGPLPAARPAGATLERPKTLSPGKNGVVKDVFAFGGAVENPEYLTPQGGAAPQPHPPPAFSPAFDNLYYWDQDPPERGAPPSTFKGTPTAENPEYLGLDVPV

rat hepatocytes = test: In vitro rat hepatocytes clearance assay; details: male rat hepatocytes, 1 µM-range incubation up to 100 min
WT EGFR cell line A-431 = test: Cell proliferation, WT EGFR A431 (CellTiter-Glo, 72 h); type: cell-based;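 further: proliferation from a luminescent ATP viability signal, expressed as 100 × (treated minus time-zero plate) over (DMSO control minus time-zero plate), cells grown with 10% FBS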
[5] = tested on: Her2 exon 20 insertion YVMA transduced NIH-3T3 cell line; test: Cell proliferation, Her2 YVMAins NIH-3T3 (CellTiter-Glo, 72 h); type: cell-based;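 further: viable cells quantified by ATP luminescence, growth over a day-zero baseline plate expressed as percent of DMSO control growth, compound dilution series in 10% FBS medium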
Ba/F3 EGFR NPH ins cells = test: Cell proliferation, Ba/F3 EGFR NPH ins (CellTiter-Glo, 72 h); type: cell-based;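 further: IL3-independent cells carrying constitutively phosphorylated EGFR, compound dilution series, viable cells quantified by ATP luminescence, growth relative to DMSO wells after subtracting pre-dosing (day 0) baseline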
Ri-1 cells = test: BTK (wt) cell proliferation, Ri-1 (CellTiter-Glo, 72 h); type: cell-based; details: read-out: BTK WT Ri-1 GI50;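 further: viable cells quantified as cellular ATP luminescence, proliferation normalized to a time-zero plate and the DMSO control, compounds tested across a dilution series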
WT EGFR = target: T5, WT EGFR (Homo sapiens, UniProt P00533); test: WT EGFR cellular phosphorylation inhibition in A-431 (hEGF stimulated, MSD); type: cell-based; details: A431 cells, 4 h compound, then 100 ng/ml hEGF 10 min;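 further: electrochemiluminescence read-out of EGFR Tyr1068 phosphorylation expressed as ratio to total EGFR, cells kept in medium with 1% FBS, compounds tested as a concentration series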
T5 construct: host or cells: A-431
T5 sequence (P00533 25-1210): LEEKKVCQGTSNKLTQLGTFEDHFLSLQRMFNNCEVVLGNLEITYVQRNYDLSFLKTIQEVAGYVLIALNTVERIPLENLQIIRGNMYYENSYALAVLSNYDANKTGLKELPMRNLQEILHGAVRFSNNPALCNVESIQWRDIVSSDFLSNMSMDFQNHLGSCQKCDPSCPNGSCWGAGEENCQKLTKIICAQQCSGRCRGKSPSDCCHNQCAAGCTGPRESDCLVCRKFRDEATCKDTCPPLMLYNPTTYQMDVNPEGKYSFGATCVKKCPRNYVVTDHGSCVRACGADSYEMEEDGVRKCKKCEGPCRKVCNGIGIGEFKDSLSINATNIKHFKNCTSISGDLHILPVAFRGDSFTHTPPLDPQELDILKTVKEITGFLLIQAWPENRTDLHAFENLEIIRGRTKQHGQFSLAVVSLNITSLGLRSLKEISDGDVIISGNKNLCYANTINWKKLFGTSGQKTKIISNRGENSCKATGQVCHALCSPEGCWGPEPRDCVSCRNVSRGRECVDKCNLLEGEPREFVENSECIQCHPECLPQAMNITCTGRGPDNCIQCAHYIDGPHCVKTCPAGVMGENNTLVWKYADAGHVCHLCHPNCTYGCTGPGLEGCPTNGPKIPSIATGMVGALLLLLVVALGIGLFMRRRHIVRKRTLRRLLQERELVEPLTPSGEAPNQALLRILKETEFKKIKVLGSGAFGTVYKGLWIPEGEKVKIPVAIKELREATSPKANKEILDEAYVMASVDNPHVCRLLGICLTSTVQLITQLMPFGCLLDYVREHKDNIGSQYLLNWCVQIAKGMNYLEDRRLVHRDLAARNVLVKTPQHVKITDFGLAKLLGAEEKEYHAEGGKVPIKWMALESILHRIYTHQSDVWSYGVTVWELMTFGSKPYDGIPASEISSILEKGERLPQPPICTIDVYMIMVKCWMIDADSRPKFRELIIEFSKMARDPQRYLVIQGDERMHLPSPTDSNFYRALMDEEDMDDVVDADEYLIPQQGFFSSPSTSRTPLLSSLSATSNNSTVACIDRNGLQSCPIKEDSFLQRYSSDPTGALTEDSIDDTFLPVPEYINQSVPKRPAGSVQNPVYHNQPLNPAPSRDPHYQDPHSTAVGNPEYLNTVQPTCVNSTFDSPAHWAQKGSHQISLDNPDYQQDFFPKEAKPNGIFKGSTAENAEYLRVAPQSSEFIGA

Ba/F3 EGFR ASV ins cells = test: Cell proliferation, Ba/F3 EGFR ASV ins (CellTiter-Glo, 72 h); type: cell-based;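 further: IL3-independent Ba/F3 cells transduced with EGFR V769_D770insASV, cellular ATP luminescence after compound exposure, growth relative to DMSO control with the day-0 baseline reading subtracted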
Description: as §1

BTK [6] = target: T6, BTK (Homo sapiens, UniProt Q06187); test: BTK target site occupancy ELISA (Ramos); type: cell-based; design: endogenous in cells; host or cells: Ramos; details: BTK receptor occupancy, read-out: Occupancy (Romas) IC50
Description: (§8) An enzyme-linked immunosorbent assay (ELISA) method for the detection of free uninhibited Btk in mouse and human lysates. Human or mouse whole blood were incubated with compound for 2 hour at 37° C. Whole blood were lysed in ice-cold lysis buffer containing 50 mM Tris-HCl, pH 7.5, 150 mM NaCl, 1 mM EDTA,1% Triton X-100. […] Samples were transferred to a streptavidin-coated 96-well ELISA plate and mixed while shaking for 1 hour at room temperature. The α-Btk antibody (1:500; clone number D3H5, Cell signaling Technology, Danvers, MA, USA) was then added to the well and incubated for 1 hour at room temperature. After wash, goat α-rabbit-FW (1:5000 dilution in PBS+ 0.05% Tween-20 + 1% BSA) was added to each well and incubated for 1 h at room temperature. The ELISA was developed with addition of tetramethyl benzidine (TMB) followed by Stop Solution and read at OD 450 nm.

Phospho-BTK (Tyr223) = target: T7, Phospho-BTK (Tyr223) (Homo sapiens, UniProt Q06187); test: p-BTK assay in Ramos cells (HTRF Phospho-BTK Tyr223); type: cell-based; details: pervanadate stimulated, read-out: p-BTK (Romas) IC50
T7 construct: endogenous in cells; host or cells: Ramos

BTK [7] = target: T6, BTK; test: BTK target site occupancy ELISA (PBMC); type: cell-based; details: BTK receptor occupancy
Description: as §8

[8] = Rat pharmacokinetic study after oral administration (SOA); type: in vivo; details: male Han Wistar rats
Description: For rat pharmacokinetic studies, six male Han Wistar rats were purchased from Beijing Vital River and orally dosed with the test compound at 10 mg/kg in 0.5% Tween-80 and 0.5% hydroxypropyl methylcellulose (v/w). At, 0.5, 1, 2, 4, 7 and 16 hours post-dose, blood samples (>100 µL/time point) were collected from portal vein and via cardiac puncture into separate K2EDTA […] tubes, and then immediately centrifuged at 1500 g, 5 min at 4° C. to separate plasma. The plasma samples were deproteinized with 4 fold acetonitrile (including internal standard), vortex for 10 min and centrifuges for 10 minutes at 4000 g at 4° C.. The supernatantswere submitted to LC/MS/MS (API 5500, Applied Biosystems, Foster City) analysis. Two sets of standard curves were run at the beginning and end of each batch from plasma sample analysis.
Compound absorption was measured by portal vein AUC (AUCHPV) and systemic AUC (AUCSYS) observed maximum concentration (Cmax) in rats after oral administration. Dose is the actual dose used in SOA study. Find below in Table 9 data for exemplary tested compounds.

[9] = In vitro human hepatocytes clearance assay; details: both, human, cryopreserved human hepatocytes (suspension), human hepatocytes Clint (µL/min/10^6cells), mixed gender human hepatocytes, incubation up to 100 min
Description: as §2, §3, §4, §5, §6, §7

[10] = In vitro rat hepatocytes clearance assay; details: male, rat, cryopreserved rat hepatocytes (suspension), rat hepatocytes Clint (µL/min/10^6cells), 1 µM-range incubation up to 100 min
in vitro [11] = details: male, rat, hepatocytes, rat hepatocytes Clint (µL/min/10^6cells)
in vitro [12] = details: both, human, hepatocytes, human hepatocytes Clint (µL/min/10^6cells)
Description: as §2, §3, §4, §5, §6, §7

[13] = NCI-H1975, 72 h proliferation, read-out: EGFR L858R and T790M mutation GI50
[14] = OCI-LY-10 cells, 72 h, CellTiter-Glo
[15] = TMD-8 cells, 72 h, CellTiter-Glo
[16] = A431, 72 h proliferation, read-out: EGFR WT A431 GI50
[17] = Her2 YVMAins cells, 72 h proliferation, read-out: Her2 Exon 20 YVMA insertion GI50
[18] = Ba/F3 EGFR NPH ins, 72 h proliferation, read-out: EGFR Exon20 NPH insertion GI50
[19] = Ri-1 cells, 72 h, CellTiter-Glo
[20] = Ba/F3 EGFR ASV ins, 72 h proliferation, read-out: EGFR Exon20 ASV insertion GI50

IC50 (BTK [6]) [nM]	IC50 (Phospho-BTK (Tyr223)) [nM]	IC50 (BTK [7]) [nM]	Structure (SMILES)	GI50 [1, 13] [nM]	GI50 (OCI-LY-10 cells; [14]) [nM]	GI50 (TMD-8 cells; [15]) [nM]	IC50 [2] [nM]	human hepatocytes Clint (µL/min/10^6cells) (human hepatocytes)	IC50 [3] [nM]	IC50 (EGFR L858R&T790M) [nM]	GI50 (DB cells; DB cells, CellTiter-Glo) [nM]	IC50 [4] [nM]	rat hepatocytes Clint (µL/min/10^6cells) (rat hepatocytes)	GI50 (WT EGFR cell line A-431; [16]) [nM]	GI50 [5, 17] [nM]	GI50 (Ba/F3 EGFR NPH ins cells; [18]) [nM]	GI50 (Ri-1 cells; [19]) [nM]	IC50 (WT EGFR) [nM]	GI50 (Ba/F3 EGFR ASV ins cells; [20]) [nM]	also measured
–	–	–	C=CC(=O)Nc1cc(Nc2ncnc(Nc3cc(Cl)c(F)cc3C(C)(O)CC)n2)c(OC)cc1N1CC[C@@H](N(C)C)C1 (single isomer, unassigned) [Compound 70, N-(5-(4-(5-chloro-4-fluoro-2-((R)-2-hydroxybutan-2-yl)phenylamino)-1,3,5-triazin-2-ylamino)-2-((R)-3-(dimethylamino)pyrrolidin-1-yl)-4-methoxyphenyl)acrylamide or N-(5-(4-(5-chloro-4-fluoro-2-((S)-2-hydroxybutan-2-yl)phenylamino)-1,3,5-triazin-2-ylamino)-2-((R)-3-(dimethylamino)pyrrolidin-1-yl)-4-methoxyphenyl)acrylamide]	9.1	22.2	10.2	22.3	3.69	67.5	1.5	> 3000	15.7	12.9	15.4	72	65.8	88.9	71.2	65.4	–
0.49	1.6	1.7	C=CC(=O)Nc1cc(Nc2nccc(Nc3cc(Cl)c(F)cc3C(C)(O)CC)n2)c(OC)cc1N1CC[C@@H](N(C)C)C1 (single isomer, unassigned) [Compound 77, N-(5-(4-(5-chloro-4-fluoro-2-((R)-2-hydroxybutan-2-yl)phenylamino)pyrimidin-2-ylamino)-2-((R)-3-(dimethylamino)pyrrolidin-1-yl)-4-methoxyphenyl) acrylamide or N-(5-(4-(5-chloro-4-fluoro-2-((S)-2-hydroxybutan-2-yl)phenylamino)pyrimidin-2-ylamino)-2-((R)-3-(dimethylamino)pyrrolidin-l-yl)-4-methoxyphenyl) acrylamide]	3.6	1.23	1.19	50.8	7.87	44.8	1.7	1750	21.5	15.8	32.4	109	81.9	1.55	303	102	–
3.1	3.8	3.8	C=CC(=O)Nc1cc(Nc2nccc(Nc3cc(Cl)c(F)cc3C(C)(C)O)n2)c(OC)cc1N1CC[C@@H]1CN(C)C [Compound 53, (R)-N-(5-(4-(5-chloro-4-fluoro-2-(2-hydroxypropan-2-yl)phenylamino)pyrimidin-2-ylamino)-2-(2-((dimethylamino)methyl)azetidin-1-yl)-4-methoxyphenyl)acrylamide]	–	–	–	25.8	–	30	1.1	–	10.9	–	–	–	–	–	139	–	GI50 ([1]; Homo sapiens, NCI-H1975, 72 h, NCI-H1975, 72 h proliferation, read-out: EGFR L858R and T790M mutation GI50): 4 nM; SOA DN AUCSYS (ng·h/mL)/(mg/kg) ([8]; dose-normalised systemic AUC): 116 (ng·h/mL)/(mg/kg); Cmax ([8]; rat, plasma, nominal 10 mg/kg (actual dose in c1)): 195 ng/mL; GI50 (OCI-LY-10 cells; Homo sapiens, OCI-Ly10, 72 h, OCI-LY-10 cells, 72 h, CellTiter-Glo): 9.16 nM; GI50 (TMD-8 cells; Homo sapiens, TMD8, 72 h, TMD-8 cells, 72 h, CellTiter-Glo): 6.39 nM; hepatocyte CLint at 1 µM [9]: 4.04 µL/min/1e6 cells; GI50 (DB cells; Homo sapiens, DB, DB cells, CellTiter-Glo): > 3000 nM; hepatocyte CLint at 1 µM [10]: 12.3 µL/min/1e6 cells; GI50 (WT EGFR cell line A-431; Homo sapiens, A-431, 72 h, A431, 72 h proliferation, read-out: EGFR WT A431 GI50): 71.8 nM; GI50 ([5]; Mus musculus, NIH3T3, 72 h, Her2 YVMAins cells, 72 h proliferation, read-out: Her2 Exon 20 YVMA insertion GI50): 137 nM; GI50 (Ba/F3 EGFR NPH ins cells; Ba/F3 EGFR, 72 h, Ba/F3 EGFR NPH ins, 72 h proliferation, read-out: EGFR Exon20 NPH insertion GI50): 89.3 nM; GI50 (Ri-1 cells; Ri-1, 72 h, Ri-1 cells, 72 h, CellTiter-Glo): 17.1 nM; GI50 (Ba/F3 EGFR ASV ins cells; Ba/F3 EGFR, 72 h, Ba/F3 EGFR ASV ins, 72 h proliferation, read-out: EGFR Exon20 ASV insertion GI50): 84 nM
–	–	–	C=CC(=O)Nc1cc(Nc2ncnc(Nc3cc(Cl)c(F)cc3C(C)(O)CC)n2)c(OC)cc1N1CC[C@@H](N(C)C)C1 (stereo partly drawn) [Compound 59, N-(5-(4-(5-chloro-4-fluoro-2-(2-hydroxybutan-2-yl)phenylamino)-1,3,5-triazin-2-ylamino)-2-((R)-3-(dimethylamino)pyrrolidin-1-yl)-4-methoxyphenyl) acrylamide]	–	–	–	13.3	–	16.4	0.5	–	3.5	–	–	–	–	–	25.7	–	GI50 ([1]; Homo sapiens, NCI-H1975, 72 h, read-out: EGFR L858R and T790M mutation GI50 (nM)): 2 nM; GI50 (OCI-LY-10 cells; Homo sapiens, OCI-Ly10, 72 h): 17.1 nM; GI50 (TMD-8 cells; Homo sapiens, TMD8, 72 h): 4.78 nM; GI50 (DB cells; Homo sapiens, DB): > 3000 nM; hepatocyte CLint at 1 µM (in vitro [11]): 14.1 µL/min/1e6 cells; GI50 (WT EGFR cell line A-431; Homo sapiens, A-431, 72 h, read-out: EGFR WT A431 GI50 (nM)): 10.7 nM; GI50 ([5]; Mus musculus, NIH3T3, 72 h, read-out: Her2 Exon 20 YVMA insertion GI50 (nM)): 62.2 nM; hepatocyte CLint at 1 µM (in vitro [12]): 3.75 µL/min/1e6 cells; GI50 (Ba/F3 EGFR NPH ins cells; Ba/F3 EGFR, 72 h, read-out: EGFR Exon20 NPH insertion GI50 (nM)): 29.1 nM; GI50 (Ri-1 cells; Ri-1, 72 h): 26.9 nM; GI50 (Ba/F3 EGFR ASV ins cells; Ba/F3 EGFR, 72 h, read-out: EGFR Exon20 ASV insertion GI50 (nM)): 29.8 nM
